Tests used:
[1] = Cell viability upon exposure of tumor cells to photosensitizer and light; format: cell-based, human; conditions: human, U937 myeloid leukemia cells; U937 cells, 10.0 μM photosensitizer, no light exposure; read-out: percent viability
Protocol: (§1) Abstract: A class of Type 1 photosensitizer containing fragile —N—N— bonds that produce reactive intermediates upon photoexcitation was prepared and tested in vitro. U937 leukemia cells were incubated with the photosensitizer at various concentrations and irradiated with 325-425 nm light at various durations.
(§2) Cell Viability Measurements: A general procedure is carried out for measuring cell viability upon exposure of tumor cells to a photosensitizer having Formula (FX23) or (FX25) and light. The photosensitizer (FX23) has an absorption maxima (λmax) of 385 nm. The cell viability analysis is carried out using human myeloid leukemia U937 cell line by the standard WST-1 assay. In this procedure, U397 Luekemia cells (0.5×10^6) are plated in standard T-25 cell culture flasks, and are exposed to four controls and a series of test conditions corresponding to a range of photosensitizer concentrations.
(§3) The photosensitizers having formula (FX23) and (FX25) are dissolved in DMSO at an initial concentration of about 8 mM and diluted with water to the final desired value such that amount of DMSO exposed to the cells is below 0.5%. The cells are incubated at 37° C. with various concentrations the photosensitizer for about 30 minutes prior to the exposure of light. […] It should be noted that in the present study, the light source is not optimized with respect to power and wavelength. The viability of cells is assessed after 24 hours following light exposure. The light source is a B-100SP High Intensity Lamp from UVP. Once exposure is complete, cells are processed to determine percent viability using Hank's Balanced Salt Solution (HBSS), Trypan blue stain, and a hemacytometer to count live and dead cells. The number of viable cells is determined and percent viability is determined

[2] = tested on: human myeloid leukemia U937 cell line; assay: as above; format: cell-based; conditions: for cell viability result in words: U937 cells exposed to light in presence of photosensitizer, various concentrations and durations; for percent viability: U937 cells
Protocol: as §1, §2, §3

[3] = Absorption maxima of photosensitizer; format: physicochemical

## COc1cc(OC)c(/C=N/Nc2c3ccccc3nc3ccccc23)c(OC)c1 [FX25]
[1]
  viability at 10 μM: 60%
[2]
  cell viability result in words: concentration-dependent and light exposure time-dependent decrease in cell viability
[2]; 1.25 μM photosensitizer, light exposure 10 minutes
  percent viability: 100%
[2]; 1.25 μM photosensitizer, light exposure 20 minutes
  percent viability: 100%
[2]; 5.0 μM photosensitizer, light exposure 10 minutes
  percent viability: 65%
[2]; 5.0 μM photosensitizer, light exposure 20 minutes
  percent viability: 10%
[2]; 10.0 μM photosensitizer, light exposure 10 minutes
  percent viability: 40%
[2]; 10.0 μM photosensitizer, light exposure 20 minutes
  percent viability: 4%

## CCOC(=O)NN(C(=O)OCC)c1c2ccccc2cc2ccccc12 [FX23]
[2]; Homo sapiens, U-937, 20 min, U937 cells exposed to light and the photosensitizer for 20 minutes, read-out: VC50/20 (concentration at which 50% decrease in cell viability is observed)
  IC50: 0.13 ± 0.03 µM
[2]
  cell viability result in words: concentration-dependent and light exposure time-dependent decrease in cell viability
[2]; 0.16 μM photosensitizer, light exposure 5 minutes (325-425 nm lamp), viability 24 h after exposure
  percent viability: 78%
[2]; 0.16 μM photosensitizer, light exposure 10 minutes
  percent viability: 40%
[2]; 0.16 μM photosensitizer, light exposure 20 minutes
  percent viability: 40%
[2]; 0.32 μM photosensitizer, light exposure 5 minutes
  percent viability: 41%
[2]; 0.32 μM photosensitizer, light exposure 10 minutes
  percent viability: 5%
[2]; 0.32 μM photosensitizer, light exposure 20 minutes
  percent viability: 5%
[2]; 0.63 μM photosensitizer, light exposure 5 minutes
  percent viability: 5%
[2]; 0.63 μM photosensitizer, light exposure 10 minutes
  percent viability: 5%
[2]; 0.63 μM photosensitizer, light exposure 20 minutes
  percent viability: 4%
[3]
  absorption maxima (λmax): 385 nm

— patent US8731655B2, “Compounds containing acyclic N-N bonds for phototherapy” (Mallinckrodt LLC, priority 2009, dated 2014)
